According to article PMC7321382, “Synthesis and Antibacterial Analysis of Analogues of the Marine Alkaloid Pseudoceratidine” (Molecules, 2020):
In brackets after ≈: the same amount, converted by molar mass.

Key:
[1] = tested on: S. aureus 16207; experiment: Antibacterial MIC, broth microdilution, S. aureus; assay type: cell-based, Staphylococcus aureus; settings: Gram-positive, 24 h incubation, highest concentration tested 32 µM; for MIC: Staphylococcus aureus, 16207
Procedure: (§1) The MIC was determined using the broth microdilution method. Mueller Hinton (MH) broth base was prepared in milli-Q water, then autoclaved at 120 °C for 1 h before allowing it to cool to room temperature. A single colony of each bacterial strain (E. coli DH5α and S. aureus 16207) was inoculated in MHB and incubated at 37 °C overnight. Overnight cultures were adjusted to 10^6 CFU/mL in MHB according to the McFarland Standard,100 μL of which was further diluted to a total of 10 mL in the media. The stock solutions of the compounds were prepared at 12.8 mM in purified DMSO. The stock solutions were further diluted in milli-Q water to 64 μM in 0.5% DMSO for testing against S. aureus, and 256 μM in 2% DMSO for testing against E. coli. Compounds that were not soluble in these solvent mixtures were further diluted in half to get clear solutions for the bioassay. DMSO is known to have weak antibacterial activity. To exclude the antibacterial effect of DMSO from the results, a solution of 2% DMSO in milli-Q water was used as an additional control in the experiments. The compounds and three controls (the natural product pseudoceratidine 1 for both strains, streptomycin for S. aureus, and polymyxin B for E. coli) then underwent a dilution series. The assay was performed by adding 50 μL of each compound solution at the different concentrations and 50 μL of the diluted bacterial culture to the different wells of a 96-well microtiter plate. The experiments were performed at least thrice and in triplicates. MIC after 24 h of incubation was determined by both visual inspection and absorbance at 600 nm using an EnSpire Multimode plate reader.

[2] = tested on: HEK293 human embryonic kidney cells; experiment: Cytotoxicity, sulforhodamine B cell proliferation assay; assay type: cell-based; settings: for relative growth of HEK293 cells (% of untreated control) at 16 µM: Homo sapiens, 72 h, 16 µM compound, 3 days, relative to control with no treatment, mean ± SD of triplicates; for cytotoxic activity (in words): HEK293, at concentrations 2–4 times the MIC (16 µM)
Procedure: As described previously, cell proliferation was measured by sulforhodamine B colorimetric assay in which 2000 HEK293 human embryonic kidney cells were seeded in 96-well plates in the presence of varying concentrations of drugs. The sulforhodamine B colorimetric assay, which is based on the measurement of cellular protein content, was used to measure cell density. After drug treatment for 3 days, cells were fixed with 10% (w/v) trichloroacetic acid and stained with 0.057% (w/v) sulforhodamine B for 30 min, and the excess dye was removed by washing repeatedly with 1% (v/v) acetic acid. The protein-bound dye was dissolved in Tris base solution (10 mM) for optical density determination at 510 nm using a microplate reader. All experiments were done in triplicate, and were repeated at least twice. The optimal cell densities were previously determined to select initial cell densities that ensured that the cells were in the logarithmic phase for the experiments.

[3] = tested on: E. coli DH5α; experiment: Antibacterial MIC, broth microdilution, E. coli; assay type: cell-based, Escherichia coli; settings: for MIC: Escherichia coli, Gram-negative, 24 h incubation, highest concentration tested 128 µM, † lower starting concentration due to insolubility
Procedure: as §1

[4] = tested on: Pseudomonas aeruginosa; set-up: method as in doi:10.1016/S0960-894X(96)00622-1, doi:10.1016/S0040-4020(98)00340-8, doi:10.1016/0040-4039(96)01310-X; settings: Gram-negative; cited from earlier work
[5] = tested on: Balanus amphitrite; set-up: method as in doi:10.1016/0040-4039(96)00025-1; settings: marine larval organism Balanus amphitrite; cited from earlier work
[6] = tested on: Staphylococcus aureus; set-up: method as in doi:10.1016/S0960-894X(96)00622-1, doi:10.1016/S0040-4020(98)00340-8, doi:10.1016/0040-4039(96)01310-X; settings: Gram-positive; cited from earlier work
[7] = tested on: Plasmodium falciparum; set-up: method as in PMID 29297684; settings: anti-malarial; cited from earlier work
[8] = tested on: Listeria monocytogenes; set-up: method as in doi:10.1016/S0960-894X(96)00622-1, doi:10.1016/S0040-4020(98)00340-8, doi:10.1016/0040-4039(96)01310-X; settings: Gram-positive; cited from earlier work
[9] = tested on: Escherichia coli; set-up: method as in doi:10.1016/S0960-894X(96)00622-1, doi:10.1016/S0040-4020(98)00340-8, doi:10.1016/0040-4039(96)01310-X; settings: Gram-negative; cited from earlier work
[10] = tested on: Candida albicans; set-up: method as in doi:10.1016/S0960-894X(96)00622-1, doi:10.1016/S0040-4020(98)00340-8, doi:10.1016/0040-4039(96)01310-X; settings: anti-fungal; cited from earlier work
[11] = tested on: HepG2 liver cell line; set-up: method as in PMID 29297684; settings: compared with HEK293 result; cited from earlier work

Row | Compound | melting point [°C] | MIC S. Aureus [1] [µM] | MIC [1] [µM] | MIC [3] [µM] | relative growth of HEK293 cells (% of untreated control) at 16 µM [2] [%] | cytotoxic activity (in words) [2] | MIC Pseudomonas aeruginosa [4] [µg/mL] | EC50 antifouling [5] [µg/mL] | MIC Staphylococcus aureus [6] [µg/mL] | EC50 [7] [nM] | MIC Listeria monocytogenes [8] [µg/mL] | MIC Escherichia coli [9] [µg/mL] | MIC Candida albicans [10] [µg/mL] | activity against Gram-negative bacteria compared with 1 (in words) [3] | cytotoxicity versus HepG2 (in words) [11]
1 | O=C(NCCCNCCCNC(=O)c1cc(Br)c(Br)[nH]1)c1cc(Br)c(Br)[nH]1 [Compound 14e] | 135 to 137 | 8 to 16 | 8 to 16 (≈ 5.06 to 10.1 µg/mL) | 32 to 64 (≈ 20.3 to 40.5 µg/mL) | 1.1 ± 0.9 | – | – | – | – | – | – | – | – | – | –
2 | O=C(NCCCCNCCCNC(=O)c1cc(Br)c(Br)[nH]1)c1cc(Br)c(Br)[nH]1 [Pseudoceratine 1, pseudoceratidine] | – | 8 to 16 | 8 to 16 (≈ 5.18 to 10.4 µg/mL) | 32 to 64 (≈ 20.7 to 41.4 µg/mL) | 0.7 ± 0.8 | – | 128 (≈ 198 µM) | 8 (≈ 12.4 µM) | 4 (≈ 6.18 µM) | 1000 | 5 (≈ 7.73 µM) | 32 (≈ 49.5 µM) | 32 (≈ 49.5 µM) | – | –
3 | O=C(NCCCNCCCNC(=O)c1cc(Cl)c(Cl)[nH]1)c1cc(Cl)c(Cl)[nH]1 [Compound 14c] | 189 to 190 | 8 to 16 | 8 to 16 (≈ 3.64 to 7.28 µg/mL) | 64 to 128 (≈ 29.1 to 58.3 µg/mL) | 0.5 ± 0.3 | – | – | – | – | – | – | – | – | – | –
4 | O=C(NCCCNCCCNC(=O)c1ccc[nH]1)c1ccc[nH]1 [Compound 14a] | 165 to 166 | – | > 32 | > 128 | – | – | – | – | – | – | – | – | – | – | –

More lines, main results first:

Row | melting point [°C] | MIC S. Aureus [1] [µM] | MIC [1] [µM] | MIC [3] [µM] | Compound | relative growth of HEK293 cells (% of untreated control) at 16 µM [2] [%] | cytotoxic activity (in words) [2] | MIC Pseudomonas aeruginosa [4] [µg/mL] | EC50 antifouling [5] [µg/mL] | MIC Staphylococcus aureus [6] [µg/mL] | EC50 [7] [nM] | MIC Listeria monocytogenes [8] [µg/mL] | MIC Escherichia coli [9] [µg/mL] | MIC Candida albicans [10] [µg/mL] | activity against Gram-negative bacteria compared with 1 (in words) [3] | cytotoxicity versus HepG2 (in words) [11]
5 | 189 to 190 | 4 to 8 | 4 to 8 (≈ 2.16 to 4.31 µg/mL) | 32 to 64 (≈ 17.3 to 34.5 µg/mL) | O=C(NCCCCCCNCCCCCCNC(=O)c1cc(Cl)c(Cl)[nH]1)c1cc(Cl)c(Cl)[nH]1 [Compound 15c] | 1.8 ± 2 | – | – | – | – | – | – | – | – | – | –
6 | 110 to 112 | 4 to 8 | 4 to 8 (≈ 2.11 to 4.21 µg/mL) | 128 to 256 (≈ 67.4 to 135 µg/mL) | O=C(NCCCNCCCCNCCCNC(=O)c1cc(Cl)c(Cl)[nH]1)c1cc(Cl)c(Cl)[nH]1 [Compound 19c] | 1.6 ± 2 | – | – | – | – | – | – | – | – | – | –
7 | 109 to 111 | 4 to 8 | 4 to 8 (≈ 2.05 to 4.1 µg/mL) | 32 to 64 (≈ 16.4 to 32.8 µg/mL) | O=C(NCCCNCCCNCCCNC(=O)c1cc(Cl)c(Cl)[nH]1)c1cc(Cl)c(Cl)[nH]1 [Compound 18c] | 98 ± 4.5 | almost no cytotoxic activity | – | – | – | – | – | – | – | – | –
8 | 133 to 135 | 16 to 32 | 16 to 32 (≈ 7.06 to 14.1 µg/mL) | 32 to 64 (≈ 14.1 to 28.2 µg/mL) | O=C(NCCCNCCNC(=O)c1cc(Cl)c(Cl)[nH]1)c1cc(Cl)c(Cl)[nH]1 [Compound 16c] | 2.5 ± 1.8 | – | – | – | – | – | – | – | – | equivalents activity to 1 | –
9 | 206 to 208 | 8 to 16 | 8 to 16 (≈ 4.95 to 9.9 µg/mL) | 64 to 128 (≈ 39.6 to 79.2 µg/mL) | O=C(NCCCNCCNC(=O)c1cc(Br)c(Br)[nH]1)c1cc(Br)c(Br)[nH]1 [Compound 16e] | 2.6 ± 2 | – | – | – | – | – | – | – | – | – | –
10 | – | 4 to 8 | 4 to 8 (≈ 2.87 to 5.74 µg/mL) | 16 to 32 (≈ 11.5 to 22.9 µg/mL) | O=C(NCCCCCCNCCCCCCNC(=O)c1cc(Br)c(Br)[nH]1)c1cc(Br)c(Br)[nH]1 [Compound 15e] | 1.3 ± 0.8 | – | – | – | – | – | – | – | – | – | –
11 | – | 2 to 4 | 2 to 4 (≈ 1.41 to 2.82 µg/mL) | 32 to 64 (≈ 22.5 to 45.1 µg/mL) | O=C(NCCCNCCCCNCCCNC(=O)c1cc(Br)c(Br)[nH]1)c1cc(Br)c(Br)[nH]1 [Compound 19e] | 94.5 ± 5.9 | almost no cytotoxic activity | – | – | – | – | – | – | – | – | far less toxic
12 | – | 2 to 4 | 2 to 4 (≈ 1.38 to 2.76 µg/mL) | 32 to 64 (≈ 22.1 to 44.2 µg/mL) | O=C(NCCCNCCCNCCCNC(=O)c1cc(Br)c(Br)[nH]1)c1cc(Br)c(Br)[nH]1 [Compound 18e] | 2.1 ± 1.5 | – | – | – | – | – | – | – | – | – | –
